Results on 8 molecules are retold here after publication PMC6891813, “Piltunines A–F from the Marine-Derived Fungus Penicillium piltunense KMM 4668” (Marine Drugs, 2019).

Data set [1] has as its system human drug-resistant prostate cancer 22Rv1 cell. Briefly: MTT cytotoxicity assay, 22Rv1 cells. Type of data set: cell-based. Conditions: for viability at 100 µM / IC50: Homo sapiens, 22Rv1; for viability at 100 µM: read-out: Viability at 100 µM, % of Control, 22Rv1 Cells; for IC50: 72 h treatment; for SI (selectivity index): [viability of PNT-2 cells]/[viability of 22Rv1 cells] at 100 µM. The source says:
(§1) We have investigated the effect of the isolated compounds 1, 1a, 2, 7–9 on the viability of human drug-resistant prostate cancer 22Rv1 cell as well as on human prostate non-cancer PNT-2 cells using an MTT assay (Table 3). We have also determined a selectivity index (SI) at for all the tested substances (Table 3). […] Note, 22Rv1 cells are known to be resistant to the hormone therapy due to the expression of androgen receptor splice variant AR-V7 [15]. Thus, the compounds which are active inAR-V7-positive 22Rv1 cells are of high clinical interest.
(§2) The human prostate cancer cells 22Rv1 and human prostate non-cancer cells PNT-2 were purchased from ATCC. Cell lines were cultured according to the manufacturers instructions in 10% FBS/RPMI media (Invitrogen). Cells were continuously kept in culture for a maximum of 3 months, and were routinely inspected microscopically for stable phenotype and regularly checked for contamination with mycoplasma. The authentity of the cells has recently been confirmed by the Multiplexion (Heidelberg, Germany) using highly polymorphic short tandem repeat loci.
(§3) The in vitro cytotoxicity of individual substances was evaluated using the MTT (3-(4,5-dimethylthiazol-2-yl)-2,5-diphenyltetrazolium bromide) assay, which was performed as previously described. The vehicle (DMSO) treated cells were used as a negative control. Treatment time was 72 h.

Data set [2] in a line: MTT cytotoxicity assay, PNT-2 cells. It is filed as cell-based, human. Conditions: human, PNT-2 prostate non-cancer cells, 100 µM, 72 h, read-out: Viability at 100 µM, % of Control, PNT-2 Cells.
Description: as §1, §2, §3
Background: Tetrazolium dyes change colour on reduction, which living cells bring about.

Data set [3] has as its system human prostate non-cancer PNT-2 cells. In words: MTT cytotoxicity assay, PNT-2 cells. Type of data set: cell-based. As to conditions: Homo sapiens, PNT2, 72 h treatment.
Description: as §1, §2, §3

Data set [4] deals with murine peritoneal macrophages co-incubated with lipopolysaccharide (LPS). Briefly: ROS level analysis in LPS-treated macrophages (DCF-DA fluorescence). Type of data set: cell-based, Mice BALB/c. Conditions: 10 μM, 1 h at 37 °C, LPS co-incubation; p < 0.05. On the procedure: Figure 5 Effect of compounds on reactive oxygen species (ROS) level in murine peritoneal macrophages co-incubated with lipopolysaccharide (LPS). The compounds were tested at a concentration of 10 μM. Time of cell incubation with compounds was 1 h at 37 °C. * p < 0.05. (Student’s t-test).
The suspension of macrophages on 96-well plates (2 × 10^4 cells/well) were washed withphosphate-buffered saline (PBS) and treated with 180 µL/well of the tested compounds (10 μM) for 1 h and 20 µL/well LPS from E. coli serotype 055:В5 (Sigma-Aldrich, MA, USA, 1.0 μg/mL), which were both dissolved in PBS and cultured at 37 °C in a CO2-incubator for one hour. For the ROS levels measurement, 200 μL of 2,7-dichlorodihydrofluorescein diacetate (DCF-DA, Sigma, final concentration 10 μM) fresh solution was added to each well, and the plates were incubated for 30 min at 37 °C. The intensity of DCF-DA fluorescence was measured at λex 485 n/λem 518 nm using the plate reader PHERAstar FS (BMG Labtech, Offenburg, Germany).
Mice BALB/c were sacrificed by cervical dislocation. Peritoneal macrophages were isolated using standard procedures. For this purpose, 3 ml of PBS (pH 7.4) was injected into the peritoneal cavity and the body intensively palpated for 1–2 min. Then the peritoneal fluid was aspirated with a syringe. […]

Data set [5] relates to LPS-stimulated macrophages. Briefly: NO (RNS) level analysis in LPS-treated macrophages (DAF FM-DA fluorescence). Type of data set: cell-based, Mice BALB/c. Conditions: 1 μM (non-toxic concentration); p < 0.05. On the procedure:
Compound 9 suppressed NO production in LPS-stimulated macrophages at non-toxic concentration of 1 μM. NO level in these cells was decreased by 24.1 ± 0.7% (p < 0.05, Student’s t-test) in comparison with LPS-treated control (data not shown). Therefore, compound 9 may be a promising candidate for the therapy of inflammatory diseases accompanying overproduction of NO.
The suspension of macrophages on 96-well plates (2 × 10^4 cells/well) were washed with the PBS and treated with 180 µL/well of the tested compounds (10 μM) for 1 h and 20 µL/well LPS from E. coli serotype 055:В5 (Sigma, 1.0 μg/mL), which were both dissolved in PBS and cultured at 37 °C in a CO2-incubator for one hour. For the RNS levels measurement, 200 μL Diaminofluorescein-FM diacetate (DAF FM-DA, Sigma, final concentration 10 μM) fresh solution was added to each well, and the plates were incubated for 40 min at 37 °C, then replace with fresh PBS, and then incubated for an additional 30 min to allow complete de-esterification of the intracellular diacetates. The intensity of DAF FM-DA fluorescence was measured at λex 485 n/λem 520 nm using the plate reader PHERAstar FS (BMG Labtech, Offenburg, Germany).
Mice BALB/c were sacrificed by cervical dislocation. Peritoneal macrophages were isolated using standard procedures. […]

The term viability denotes a per cent measure of how many cells are alive, often set against a control. The IC50 is the midpoint of a concentration-inhibition curve.

Take `CC(CO)=C1CCC23COC(C2)C(O)(C(=O)O)CCC13` (centres unmarked) [Compound 1, Piltunine A]: the viability at 100 µM in data set [1] (72 h, MTT assay) worked out at 65.5%. For the same molecule, the IC50 in data set [1] (MTT assay) and in data set [3] was more than 100 µM each time. Moreover, the “SI (selectivity index)” value in data set [1] (72 h) is 1.48. In data set [2], the viability at 72 h, 100 µM came to 97.2%.

On to `COC(=O)C1(O)CCC2C(=C(C)CO)CCC23COC1C3` (centres unmarked) [Compound 1a], for which the viability at 100 µM in data set [1] (72 h, MTT assay) was 62.2%. Besides, the IC50 in data set [1] (MTT assay) and in data set [3] was more than 100 µM throughout. The “SI (selectivity index)” value in data set [1] (72 h) was found to be 1.29. In data set [2], the viability at 72 h, 100 µM is 80.4%.

For `CC(=O)OC/C(C)=C1\CC[C@]23CO[C@H](C2)[C@@](O)(C(=O)O)CC[C@@H]13` [Compound 2, Piltunine B], the viability at 100 µM in data set [1] (72 h, MTT assay) was found to be 61.9%. Moreover, the half-maximal inhibitory concentration (IC50) in data set [1] (MTT assay) and in data set [3] was more than 100 µM each time. In addition, the “SI (selectivity index)” value in data set [1] (72 h) worked out at 1.34. Further, the viability at 72 h, 100 µM in data set [2] came out at 82.9%.

On to `CC(=O)C1=CC[C@]23CO[C@H](C2)[C@@](O)(C(=O)O)CC[C@@H]13` [Compound 5, Piltunine E], for which the “Effect on ROS production” value in data set [4] was “significant down-regulation of ROS production”.

In the case of `C=C(C)C1(O)CCC23COC(C2)C(O)(C(=O)O)CCC31` (centres unmarked) [Compound 7, penigrisacid D], the viability at 100 µM in data set [1] (72 h, MTT assay) was 63.8%. The IC50 in data set [1] (MTT assay) and in data set [3] was more than 100 µM throughout. Also, the “SI (selectivity index)” value in data set [1] (72 h) is 1.26. Moreover, the viability at 72 h, 100 µM in data set [2] worked out at 80.7%.

As for `C[C@H]1CCC[C@H](C[C@H]2Cc3cc(O)cc(O)c3C(=O)O2)O1` [Compound 8, cladosporin], the viability at 100 µM in data set [1] (72 h, MTT assay) worked out at 38.7%. In addition, the figures for the IC50 in data set [1] (MTT assay) and in data set [3] were 71.7 ± 8.9 µM and more than 100 µM, respectively. Besides, the “Cytotoxicity in cancer cells in comparison with the other substances” value in data set [1] (MTT assay, 72 h) was “most cytotoxic in cancer cells”. The viability at 72 h, 100 µM in data set [2] amounted to 88.1%.

With `CC1OC(CC2Cc3cc(O)cc(O)c3C(=O)O2)CCC1O` (centres unmarked) [Compound 9, 5’-hydroxyasperentin], the viability at 100 µM in data set [1] (72 h, MTT assay) worked out at 54.9%. Also, the IC50 in data set [1] (MTT assay) and in data set [3] was more than 100 µM in each case. In data set [1] (72 h), the “SI (selectivity index)” value came to 1.01. In data set [2], the viability at 72 h, 100 µM was found to be 55.5%. In addition, the “Effect on ROS production” value in data set [4] is reported as “significant down-regulation of ROS production”. Besides, the “Decrease of NO level in comparison with LPS-treated control” value in data set [5] amounted to 24.1 ± 0.7%.

With `CC(=O)O[C@@]12CO[C@@H]1C[C@H](O)[C@@]1(C)C(=O)[C@H](O)C3=C(C)[C@@H](OC(=O)[C@H](O)[C@@H](NC(=O)OC(C)(C)C)c4ccccc4)C[C@@](O)([C@@H](OC(=O)c4ccccc4)[C@H]21)C3(C)C` [Docetaxel, reference compound], the IC50 in data set [1] (MTT assay, positive control) is 0.00278 ± 0.00107 µM; in data set [3] (positive control), 0.0847 ± 0.0206 µM.
